Patent publication EP0229128B1, “DERIVATIVES OF GLYCERO-3(2)-PHOSPHO-L-SERINE AND PHARMACEUTICAL PREPARATIONS CONTAINING THEM” (CL PHARMA AKTIENGESELLSCHAFT, priority 1985, dated 1987)

Test system: Ehrlich-Ascites-Tumorzellen
Assay: Inhibition of proliferation of Ehrlich ascites tumour cells in vitro
Assay type: cell-based
Details: read-out: Hemmung der Proliferation (%) von Ehrlich-Ascites-Tumorzellen in vitro, % Hemmung; for inhibition at 1 µM: Konzentration 1 µM; for inhibition at 2 µM: Konzentration 2 µM; for inhibition at 5 µM: Konzentration 5 µM; for inhibition at 10 µM: Konzentration 10 µM; for inhibition at 20 µM: Konzentration 20 µM; for inhibition at 100 µM: Konzentration 100 µM
Source text: Die Verbindungen der allgemeinen Formel I und Salze davon sind biologisch hochaktiv und besitzen insbesondere eine ausgeprägte Antitumorwirksamkeit. Diese wertvollen pharmakologischen Eigenschaften können in vitro und in vivo unter Verwendung von Standardmethoden nachgewiesen werden, beispielsweise indem die Hemmung der Proliferation von Ehrlich-Ascites-Tumorzellen in vitro unter Einwirkung von Glycero-3(2)-phospho-L-serinderivaten der allgemeinen Formel I bestimmt wird. • In diesem Test (Tabelle I) bewirken die erfindungsgemäßen Verbindungen, beispielsweise • 1-0-Hexadecyl-2-chlor-2-desoxy-glycero-3-phospho-L-serin (Verbindung Nr. 1) • 1-0-Hexadecyl-2-fluor-2-desoxy-glycero-3-phospho-L-serin (Verbindung Nr. 2) • 1-Chlor-1-desoxy-3-0-hexadecyl-glycero-2-phospho-L-serin (Verbindung Nr. 3) • 1-0-(2,2,2-Trifluorethy)-2-0-hexadecyl-glycero-3-phospho-L-serin (Verbindung Nr. 4), schon in sehr geringen Konzentrationen eine signifikante Hemmung des Zellwachstums von Ehrlich-Ascites-Tumorzellen.

Which inhibition at 1 µM does the source give for CCCCCCCCCCCCCCCCCCOCC(COP(=O)([O-])OCC[N+](C)(C)C)OC (stereo not shown) [V, 1-O-Octadecyl-2-O-methyl-glycero-3-phosphocholin, reference compound] here?
Its inhibition at 1 µM is 0%.

And the inhibition at 2 µM?
The inhibition at 2 µM was 0%.

And the inhibition at 5 µM?
The inhibition at 5 µM was 4%.

And the inhibition at 10 µM?
Its inhibition at 10 µM is 23%.

What about the inhibition at 20 µM of the same compound?
The inhibition at 20 µM was 62%.

What about the inhibition at 100 µM of the same compound?
The inhibition at 100 µM was 100%.

With CCCCCCCCCCCCCCCCOCC(Cl)COP(=O)(O)OC[C@H](N)C(=O)O (stereo partly drawn) [Verbindung Nr. 1, 1-O-Hexadecyl-2-chlor-2-desoxy-glycero-3-phospho-L-serin] as the compound, how does the inhibition at 1 µM read?
The inhibition at 1 µM was 16%.

What about the inhibition at 2 µM of the same compound?
Its inhibition at 2 µM is 10%.

What about the inhibition at 5 µM of the same compound?
The inhibition at 5 µM was 30%.

What about the inhibition at 10 µM of the same compound?
The inhibition at 10 µM was 55%.

And the inhibition at 20 µM?
The inhibition at 20 µM was 80%.

What about the inhibition at 100 µM of the same compound?
The inhibition at 100 µM was 95%.

Which results are given for CCCCCCCCCCCCCCCCOCC(F)COP(=O)(O)OC[C@H](N)C(=O)O (stereo partly drawn) [Verbindung Nr. 2, 1-O-Hexadecyl-2-fluor-2-desoxy-glycero-3-phospho-L-serin]?
inhibition at 1 µM: 10%; inhibition at 2 µM: 13%; inhibition at 5 µM: 18%; inhibition at 10 µM: 51%; inhibition at 20 µM: 82%; inhibition at 100 µM: 95%

How did the inhibition at 1 µM turn out when CCCCCCCCCCCCCCCCOCC(CCl)OP(=O)(O)OC[C@H](N)C(=O)O (stereo partly drawn) [Verbindung Nr. 3, 1-Chlor-1-desoxy-3-O-hexadecyl-glycero-2-phospho-L-serin] was run?
Its inhibition at 1 µM is 15%.

What about the inhibition at 2 µM of the same compound?
Its inhibition at 2 µM is 17%.

And the inhibition at 5 µM?
The inhibition at 5 µM was 38%.

And the inhibition at 10 µM?
The inhibition at 10 µM was 68%.

And the inhibition at 20 µM?
Its inhibition at 20 µM is 81%.

And the inhibition at 100 µM?
The inhibition at 100 µM was 93%.

CCCCCCCCCCCCCCCCOC(COCC(F)(F)F)COP(=O)(O)OC[C@H](N)C(=O)O (stereo partly drawn) [Verbindung Nr. 4, 1-O-(2,2,2-Trifluorethyl)-2-O-hexadecyl-glycero-3-phospho-L-serin] was tested. Which inhibition at 5 µM did it give?
The inhibition at 5 µM was 10%.

What about the inhibition at 10 µM of the same compound?
The inhibition at 10 µM was 36%.

And the inhibition at 20 µM?
The inhibition at 20 µM was 74%.

What about the inhibition at 100 µM of the same compound?
Its inhibition at 100 µM is 100%.
